Experimental data as given in PubChem BioAssay AID1919006 (Molecular Pharmacology Branch, DTP, NCI, 2023).

Tested on: 885512-296-R-J2-PDC complex spheroid growth, % test/control
Assay: Anticancer human tumor 885512-296-R-J2-PDC patient-derived breast carcinoma cell line growth inhibition [AhR]
Details: for IC50: curve of first compound; for viability, T/C: stronger effect = lower value
How it was run: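 Spheroids combined tumor cells with HUVEC endothelial cells and human MSCs as stroma. AhR antagonists were paired with standard or investigational drugs, each dosed in half-log steps down from near clinical Cmax, or from 10 microM where Cmax was unknown.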

[1] = second compound 0.1 µM, first compound 0.0316 µM
[2] = second compound 0.1 µM, first compound 0.1 µM
[3] = second compound 0.316 µM, first compound 0.0316 µM
[4] = second compound 0.316 µM, first compound 0.1 µM
[5] = second compound 1 µM, first compound 0.0316 µM
[6] = second compound 1 µM, first compound 0.1 µM
[7] = second compound 3.16 µM, first compound 0.0316 µM
[8] = second compound 3.16 µM, first compound 0.1 µM
[9] = second compound 10 µM, first compound 0.0316 µM
[10] = second compound 10 µM, first compound 0.1 µM
[11] = second compound 0.1 µM, first compound 0.316 µM
[12] = second compound 0.1 µM, first compound 1 µM
[13] = second compound 0.1 µM, first compound 3.16 µM
[14] = second compound 0.1 µM, first compound 10 µM
[15] = second compound 0.316 µM, first compound 0.316 µM
[16] = second compound 0.316 µM, first compound 1 µM
[17] = second compound 0.316 µM, first compound 3.16 µM
[18] = second compound 0.316 µM, first compound 10 µM
[19] = second compound 1 µM, first compound 0.316 µM
[20] = second compound 1 µM, first compound 1 µM
[21] = second compound 1 µM, first compound 3.16 µM
[22] = second compound 1 µM, first compound 10 µM
[23] = second compound 3.16 µM, first compound 0.316 µM
[24] = second compound 3.16 µM, first compound 1 µM
[25] = second compound 3.16 µM, first compound 3.16 µM
[26] = second compound 3.16 µM, first compound 10 µM
[27] = second compound 10 µM, first compound 0.316 µM
[28] = second compound 10 µM, first compound 1 µM
[29] = second compound 10 µM, first compound 3.16 µM
[30] = second compound 10 µM, first compound 10 µM
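Also: spheroids exposed to compounds for seven days.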

SMILES: CC[C@@]1(O)C(=O)OCc2c1cc1n(c2=O)Cc2cc3c(CN(C)C)c(O)ccc3nc2-1 + Cc1cncc(-c2nc(NCCc3c[nH]c4ccccc34)c3ncn(C(C)C)c3n2)c1
- IC50 (second compound 0.1 µM): 5.46 nM
- IC50 (second compound 0.316 µM): 5.72 nM
- IC50 (second compound 1 µM): 4.47 nM
- IC50 (second compound 3.16 µM): 2.15 nM
- IC50 (second compound 10 µM): < 0.316 nM
- viability, T/C (second compound 0.1 µM, first compound 0.000316 µM): 87.8%
- viability, T/C (second compound 0.1 µM, first compound 0.001 µM): 96.1%
- viability, T/C (second compound 0.1 µM, first compound 0.00316 µM): 67.6%
- viability, T/C (second compound 0.1 µM, first compound 0.01 µM): 29.2%
- viability, T/C [1]: 9.48%
- viability, T/C [2]: 6.96%
- viability, T/C (second compound 0.316 µM, first compound 0.000316 µM): 102%
- viability, T/C (second compound 0.316 µM, first compound 0.001 µM): 88.1%
- viability, T/C (second compound 0.316 µM, first compound 0.00316 µM): 71.9%
- viability, T/C (second compound 0.316 µM, first compound 0.01 µM): 30.6%
- viability, T/C [3]: 9.89%
- viability, T/C [4]: 4.62%
- viability, T/C (second compound 1 µM, first compound 0.000316 µM): 90.4%
- viability, T/C (second compound 1 µM, first compound 0.001 µM): 82.2%
- viability, T/C (second compound 1 µM, first compound 0.00316 µM): 62%
- viability, T/C (second compound 1 µM, first compound 0.01 µM): 23.6%
- viability, T/C [5]: 6.8%
- viability, T/C [6]: 6.23%
- viability, T/C (second compound 3.16 µM, first compound 0.000316 µM): 62.9%
- viability, T/C (second compound 3.16 µM, first compound 0.001 µM): 60.1%
- viability, T/C (second compound 3.16 µM, first compound 0.00316 µM): 44.5%
- viability, T/C (second compound 3.16 µM, first compound 0.01 µM): 27.3%
- viability, T/C [7]: 12.9%
- viability, T/C [8]: 7.38%
- viability, T/C (second compound 10 µM, first compound 0.000316 µM): 21.8%
- viability, T/C (second compound 10 µM, first compound 0.001 µM): 21.9%
- viability, T/C (second compound 10 µM, first compound 0.00316 µM): 20.9%
- viability, T/C (second compound 10 µM, first compound 0.01 µM): 13.7%
- viability, T/C [9]: 11.5%
- viability, T/C [10]: 4.72%

SMILES: CCc1c2c(nc3ccc(O)cc13)-c1cc3c(c(=O)n1C2)COC(=O)[C@]3(O)CC + Cc1cncc(-c2nc(NCCc3c[nH]c4ccccc34)c3ncn(C(C)C)c3n2)c1
- IC50 (second compound 0.1 µM): < 0.949 nM
- IC50 (second compound 0.316 µM): < 0.949 nM
- IC50 (second compound 1 µM): < 0.949 nM
- IC50 (second compound 3.16 µM): < 0.949 nM
- IC50 (second compound 10 µM): < 0.949 nM
- viability, T/C (second compound 0.1 µM, first compound 0.000949 µM): 17.1%
- viability, T/C (second compound 0.1 µM, first compound 0.003 µM): 6.62%
- viability, T/C (second compound 0.1 µM, first compound 0.00949 µM): 6.47%
- viability, T/C (second compound 0.1 µM, first compound 0.03 µM): 4.7%
- viability, T/C (second compound 0.1 µM, first compound 0.0949 µM): 3.05%
- viability, T/C (second compound 0.1 µM, first compound 0.3 µM): 1.25%
- viability, T/C (second compound 0.316 µM, first compound 0.000949 µM): 13.4%
- viability, T/C (second compound 0.316 µM, first compound 0.003 µM): 8.06%
- viability, T/C (second compound 0.316 µM, first compound 0.00949 µM): 6.14%
- viability, T/C (second compound 0.316 µM, first compound 0.03 µM): 3.21%
- viability, T/C (second compound 0.316 µM, first compound 0.0949 µM): 2.78%
- viability, T/C (second compound 0.316 µM, first compound 0.3 µM): 2.11%
- viability, T/C (second compound 1 µM, first compound 0.000949 µM): 13.7%
- viability, T/C (second compound 1 µM, first compound 0.003 µM): 10.2%
- viability, T/C (second compound 1 µM, first compound 0.00949 µM): 6.69%
- viability, T/C (second compound 1 µM, first compound 0.03 µM): 3.66%
- viability, T/C (second compound 1 µM, first compound 0.0949 µM): 3.03%
- viability, T/C (second compound 1 µM, first compound 0.3 µM): 1.71%
- viability, T/C (second compound 3.16 µM, first compound 0.000949 µM): 14.3%
- viability, T/C (second compound 3.16 µM, first compound 0.003 µM): 9.78%
- viability, T/C (second compound 3.16 µM, first compound 0.00949 µM): 8.43%
- viability, T/C (second compound 3.16 µM, first compound 0.03 µM): 4.39%
- viability, T/C (second compound 3.16 µM, first compound 0.0949 µM): 2.48%
- viability, T/C (second compound 3.16 µM, first compound 0.3 µM): 2.2%
- viability, T/C (second compound 10 µM, first compound 0.000949 µM): 15.4%
- viability, T/C (second compound 10 µM, first compound 0.003 µM): 10.6%
- viability, T/C (second compound 10 µM, first compound 0.00949 µM): 5.11%
- viability, T/C (second compound 10 µM, first compound 0.03 µM): 2.46%
- viability, T/C (second compound 10 µM, first compound 0.0949 µM): 1.12%
- viability, T/C (second compound 10 µM, first compound 0.3 µM): 0.78%

SMILES: Nc1ccccc1NC(=O)c1ccc(CNC(=O)OCc2cccnc2)cc1 + Cc1cncc(-c2nc(NCCc3c[nH]c4ccccc34)c3ncn(C(C)C)c3n2)c1
- IC50 (second compound 0.1 µM): 1040 nM
- IC50 (second compound 0.316 µM): 1120 nM
- IC50 (second compound 1 µM): 1060 nM
- IC50 (second compound 3.16 µM): 373 nM
- IC50 (second compound 10 µM): < 31.6 nM
- viability, T/C [1]: 85.6%
- viability, T/C [2]: 102%
- viability, T/C [11]: 80.5%
- viability, T/C [12]: 47.3%
- viability, T/C [13]: 31.2%
- viability, T/C [14]: 12.6%
- viability, T/C [3]: 86.9%
- viability, T/C [4]: 94.4%
- viability, T/C [15]: 72%
- viability, T/C [16]: 49.4%
- viability, T/C [17]: 32.7%
- viability, T/C [18]: 12.2%
- viability, T/C [5]: 82.3%
- viability, T/C [6]: 78.7%
- viability, T/C [19]: 77.7%
- viability, T/C [20]: 48%
- viability, T/C [21]: 29.6%
- viability, T/C [22]: 15.2%
- viability, T/C [7]: 56.6%
- viability, T/C [8]: 61.3%
- viability, T/C [23]: 49.5%
- viability, T/C [24]: 40.4%
- viability, T/C [25]: 25.1%
- viability, T/C [26]: 15.2%
- viability, T/C [9]: 21.3%
- viability, T/C [10]: 19.4%
- viability, T/C [27]: 15.9%
- viability, T/C [28]: 11.6%
- viability, T/C [29]: 9.94%
- viability, T/C [30]: 9.37%

SMILES: Nc1ccn(C2OC(CO)C(O)C2(F)F)c(=O)n1 (stereo not given) + Cc1cncc(-c2nc(NCCc3c[nH]c4ccccc34)c3ncn(C(C)C)c3n2)c1
- IC50 (second compound 0.1 µM): < 31.6 nM
- IC50 (second compound 0.316 µM): < 31.6 nM
- IC50 (second compound 1 µM): < 31.6 nM
- IC50 (second compound 3.16 µM): < 31.6 nM
- IC50 (second compound 10 µM): < 31.6 nM
- viability, T/C [1]: 3.33%
- viability, T/C [2]: 4.05%
- viability, T/C [11]: 4.69%
- viability, T/C [12]: 4.03%
- viability, T/C [13]: 3.99%
- viability, T/C [14]: 4.46%
- viability, T/C [3]: 3.3%
- viability, T/C [4]: 3.9%
- viability, T/C [15]: 3.76%
- viability, T/C [16]: 4.54%
- viability, T/C [17]: 4.43%
- viability, T/C [18]: 3.99%
- viability, T/C [5]: 3.48%
- viability, T/C [6]: 3.69%
- viability, T/C [19]: 3.49%
- viability, T/C [20]: 4.33%
- viability, T/C [21]: 3.22%
- viability, T/C [22]: 3.99%
- viability, T/C [7]: 5.82%
- viability, T/C [8]: 4.2%
- viability, T/C [23]: 4.2%
- viability, T/C [24]: 4.17%
- viability, T/C [25]: 4.29%
- viability, T/C [26]: 3.8%
- viability, T/C [9]: 8.48%
- viability, T/C [10]: 8.12%
- viability, T/C [27]: 3.15%
- viability, T/C [28]: 2.99%
- viability, T/C [29]: 2.64%
- viability, T/C [30]: 2.75%

SMILES: O=C(c1cc(Cc2n[nH]c(=O)c3ccccc23)ccc1F)N1CCN(C(=O)C2CC2)CC1 + Cc1cncc(-c2nc(NCCc3c[nH]c4ccccc34)c3ncn(C(C)C)c3n2)c1
- IC50 (second compound 0.1 µM): 6620 nM
- IC50 (second compound 0.316 µM): 7170 nM
- IC50 (second compound 1 µM): 6440 nM
- IC50 (second compound 3.16 µM): 3070 nM
- IC50 (second compound 10 µM): < 31.6 nM
- viability, T/C [1]: 109%
- viability, T/C [2]: 102%
- viability, T/C [11]: 107%
- viability, T/C [12]: 112%
- viability, T/C [13]: 86.4%
- viability, T/C [14]: 29.7%
- viability, T/C [3]: 107%
- viability, T/C [4]: 98.4%
- viability, T/C [15]: 97.2%
- viability, T/C [16]: 109%
- viability, T/C [17]: 95%
- viability, T/C [18]: 31.3%
- viability, T/C [5]: 85.3%
- viability, T/C [6]: 82.7%
- viability, T/C [19]: 99.1%
- viability, T/C [20]: 87.2%
- viability, T/C [21]: 81.9%
- viability, T/C [22]: 30.3%
- viability, T/C [7]: 54.4%
- viability, T/C [8]: 60.1%
- viability, T/C [23]: 62.5%
- viability, T/C [24]: 60.1%
- viability, T/C [25]: 49.8%
- viability, T/C [26]: 24.6%
- viability, T/C [9]: 15.5%
- viability, T/C [10]: 19.7%
- viability, T/C [27]: 17.1%
- viability, T/C [28]: 17.1%
- viability, T/C [29]: 17.5%
- viability, T/C [30]: 15.2%
